The subject of this test is platelet activating factor (PAF). Kind of test: PAF Induced Paw Edema in the Mouse. The class given is in vivo, mouse (Charles River CD-1, female). The settings on record: for % Inhibition of Edema: 1 hour before PAF (1 ug/paw), 15 min after PAF. How it is done:
The experimental procedure was adapted from Calhoun et al., Agents & Actions, 21:306-309 (1987). Charles River CD-1 female mice (20-25 G) were given a dose of Formula I, or phenidone, using peanut oil as a carrier. Control mice were given doses of the carrier alone. The drugs were administered orally in a 50 μl volume of peanut oil. One hour later, 1.0 μg of PAF dissolved in 50 μl of 5% ethanol-saline was injected subcutaneously into the plantar surface of the right hind paw. The volume of this injected foot to the level of the lateral malleous was measured by water displacement immediately before drug administration and again 15 minutes after PAF injection.
The effectiveness of each compound was analyzed in the following manner. The individual paw volumes were compared by a paired t test analysis in which predrug paw volumes were compared to paw volumes 15 minutes after PAF injection to determine the level of statistical significance. The percent inhibition of edema volume was obtained from the ratio of the mean predrug volume to the mean volume after PAF.

Consider 1 compound from US4973603A, “Platelet activating factor antagonist and methods of use therefor” (priority 1989, dated 1990).

With `CCCCCc1cc(O)c2c(c1)OC(C)(C)C1CC=C(C(=O)O)CC21` (stereo not shown) [Formula I, 6a,7,10,10a-tetrahydro-6,6-dimethyl-9-carboxyl-3-pentyl-6H-dibenzo[b,d]pyran-1-ol], the “% Inhibition of Edema” value (10 mg/kg oral) amounted to 21.8%, the “% Inhibition of Edema” value (20 mg/kg oral) is given as 50.2% and the “% Inhibition of Edema” value (40 mg/kg oral) amounted to 46.2%. For the same compound, the “antagonism of inflammatory actions of PAF (in words)” value (mouse paw edema, oral) is reported as “effective antagonist to the inflammatory actions of PAF”.
